Here are results for 28 compounds from PubChem BioAssay (NCI).

Test in all cases: DTP human tumour cell line panel, 48 h
Test [1] relates to HOP-62 NSCLC.
In test [2] the test system is SF-539 CNS.
Test [3] concerns MOLT-4 leukemia.
In test [4] the test system is U251 CNS.
In test [5] the test system is HCT-116 colon.
Test [6] deals with UACC-257 melanoma.
In test [7] the test system is HL-60(TB) leukemia.
In test [8] the test system is NCI/ADR-RES ovarian.
Test [9] concerns M14 melanoma.
The subject of test [10] is SNB-75 CNS.

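How tested: cells in 96-well plates exposed to compound for 48 hours at five concentrations. Definition used: TGI = concentration required for complete inhibition of growth.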 Where a SMILES comes first, the peptide text is derived from it. The star is where a group is joined. Bn = c1ccc(C*)cc1

Regarding `C=C1C(=O)OC2/C=C(/C)C3(O)OC(C)(CC(OC(=O)C(C)C)C12)CC3OC(C)=O` (configuration not stated), the TGI is more than 100 µM in [1]; more than 29.5 µM in [2]; more than 31.6 µM in [3]; 38.2 µM in [4]; more than 100 µM in [5]; 68 µM in test [6]. Moreover, the total growth inhibition concentration (TGI) in test [7] is more than 19.7 µM; in test [8], more than 100 µM; in test [9], 68 µM; in [10] it was more than 100 µM.

For `CC12CC1C(c1cccc([N+](=O)[O-])c1)(c1cccc([N+](=O)[O-])c1)N=N2` (configuration not stated), the TGI in [1] is more than 100 µM; in test [2], 52.9 µM; in test [3], more than 100 µM; in test [4] it was 51 µM; in [5] it was 33.8 µM; in [6], more than 100 µM. For the same compound, the TGI was 45.8 µM in test [7], 59.3 µM in test [8], more than 100 µM in [9] and more than 100 µM in test [10].

As to `OC1(c2ccc(Cl)cc2)c2ccc(CN3CCCC3)cc2C2=NCCN21` (configuration not stated), the TGI in test [1] is 29.2 µM; in test [2], 25.9 µM; in [3], 41.9 µM; in [4], 27.2 µM; in [5], 27.1 µM; in test [6], 25.1 µM. The TGI was 29.1 µM in [7], more than 100 µM in test [8], 12.8 µM in test [9] and 18.5 µM in [10].

For the compound `O=C1c2cccc(NCCNCCO)c2C(=O)c2cccc(NCCNCCO)c21`, the TGI stood at 4.14 µM in [1]; 2.74 µM in test [2]; 6.3 µM in test [3]; 10.9 µM in test [4]; 4.77 µM in test [5]; 9.4 µM in test [6]. Further, the TGI in [7] was 5.19 µM; in test [8], 30.9 µM; in test [9] it was 3.57 µM; in test [10] it was 3.03 µM.

`O=C1CCCc2cc3c(cc21)CC1(C3)Cc2ccc3c(c2C1)C(=O)CCC3` (configuration not stated): the TGI in test [1] is more than 100 µM; in test [2], more than 100 µM; in [3], 22.7 µM; in [4], more than 100 µM; in test [5], more than 100 µM; in test [6], 26.5 µM. In addition, the total growth inhibition concentration (TGI) was determined as 27.7 µM in [7], 37 µM in test [8], 36.3 µM in [9] and 80.4 µM in test [10].

Take `CCCCC/C(C=O)=C\c1ccccc1`: the TGI in test [1], in [2], in test [3], in [4], in [5] and in [6] was more than 100 µM each time. Also, the TGI in test [7], in test [8], in test [9] and in test [10] was more than 100 µM each time.

For `O=C(O)c1c2c(cc3c1CC1(Cc4ccccc4C1=O)C3)CCC2` (configuration not stated), the TGI in test [1] is more than 100 µM; in test [2], more than 95.4 µM; in test [3] it was 36 µM; in test [4], more than 100 µM; in test [5], more than 100 µM; in test [6], more than 100 µM. Besides, the TGI in test [7] was 14.9 µM; in [8], more than 100 µM; in test [9] it was 70.7 µM; in [10] it was more than 94.6 µM.

Regarding `COC(=O)c1cc2c(cc1CC(Cc1ccc3c(c1)CCC3)C(=O)OC)CCC2` (configuration not stated), the TGI in test [1] was more than 100 µM; in test [2] it was more than 100 µM; in test [3], more than 100 µM; in test [4], more than 100 µM; in [5] it was more than 100 µM; in test [6] it was 81.3 µM. Further, the TGI is 31.1 µM in [7], more than 100 µM in test [8], more than 100 µM in [9] and more than 100 µM in test [10].

Regarding `Clc1ccc(Cl)c(SCCCN2CCNCC2)c1`, the total growth inhibition concentration (TGI) stood at 41.7 µM in test [1]; 51.4 µM in test [2]; 40.6 µM in [3]; 34.6 µM in test [4]; 41.5 µM in [5]; 26.5 µM in [6]. For the same compound, the TGI turned out to be 40.3 µM in [7], 36.2 µM in [8], 35.3 µM in [9] and 35.3 µM in test [10].

`COc1cc(OCc2ccc3nc(OC)c(OC)nc3c2)cc(OC)c1OC`: the total growth inhibition concentration (TGI) in test [1], in test [2], in test [3], in test [4], in [5] and in test [6] was more than 10 µM in each case. Further, the TGI in [7], in [8], in [9] and in test [10] was more than 10 µM each time.

As for `COC(=O)C1(Cc2ccc3c(c2)CCC3)Cc2cc3c(cc2C1)CCC3`, the TGI in test [1] was more than 100 µM; in test [2], more than 100 µM; in test [3] it was more than 100 µM; in test [4], more than 100 µM; in test [5] it was more than 100 µM; in test [6], 62.2 µM. In addition, the TGI is 77.8 µM in [7], more than 100 µM in [8], more than 100 µM in test [9] and more than 100 µM in test [10].

As for `COc1c(O)c(O)cc2c1-c1ccc(OC)c(=O)cc1C(NC(C)=O)CC2` (configuration not stated), the TGI in [1] stood at 87.1 µM; in [2], 10.4 µM; in test [3], 43.6 µM; in test [4], 28.9 µM; in test [5], 25.6 µM; in test [6], 76.9 µM. For the same compound, the TGI in test [7] was 18 µM; in [8], more than 69.8 µM; in test [9] it was more than 79 µM; in test [10], 63.9 µM.

In the case of `OCC(O)C(O)C(O)/C=N/Nc1nc(O)c(/C=C2\C=Nc3ccccc32)[nH]1` (configuration not stated), the TGI in test [1], in test [2], in [3], in [4], in [5] and in test [6] was more than 100 µM each time. Besides, the concentration for total growth inhibition (TGI) in test [7], in test [8], in [9] and in test [10] was more than 100 µM throughout.

On to `O=C1CCc2ccc3c(c21)CC1(Cc2ccccc2C1)C3`, for which the TGI in test [1] is more than 100 µM; in test [2], more than 100 µM; in test [3], more than 100 µM; in [4], 74 µM; in test [5] it was 17.6 µM; in [6], 35.7 µM. Further, the TGI was 7.03 µM in [7], 53.6 µM in test [8], more than 100 µM in [9] and more than 100 µM in [10].

Consider `COC(=O)C(CC(C)C)NC(=O)C(N)Cc1ccc(OCc2ccccc2)cc1` (configuration not stated) (H-Tyr(Bn)-Leu-OMe; configuration not given here), for which the TGI in [1], in test [2], in [3], in test [4], in test [5] and in test [6] was more than 10 µM each time. Further, the TGI is 5.61 µM in test [7], more than 10 µM in test [8], more than 10 µM in test [9] and more than 10 µM in test [10].

`N#Cc1c(C#N)c(-c2ccccc2)n(-c2ccccc2)c1N`: the TGI in test [1], in test [2], in [3], in test [4], in test [5] and in [6] was more than 100 µM each time. Also, the concentration for total growth inhibition (TGI) in [7] was more than 100 µM; in test [8], more than 100 µM; in test [9], more than 100 µM; in test [10], 86.4 µM.

On to `O/C(=C\c1nc2ccccc2nc1NC12CC3CC(CC(C3)C1)C2)c1ccc(Br)cc1`, for which the TGI in test [1], in [2], in [3], in test [4], in [5] and in [6] was more than 10 µM each time. For the same compound, the TGI in [7], in [8], in [9] and in [10] was more than 10 µM each time.

As to `CC(C)CCn1nc(N)c2nc3ccccc3nc21`, the TGI in test [1] was more than 100 µM; in [2], more than 100 µM; in test [3] it was 94.9 µM; in [4] it was more than 100 µM; in [5] it was more than 100 µM; in test [6] it was more than 100 µM. Besides, the TGI in test [7], in [8], in test [9] and in test [10] was more than 100 µM in each case.

For the compound `COc1ccc(/C=N/N2C(=O)c3c(N)c(C#N)c(-c4ccccc4)c(-c4ccccc4)c3C2=O)cc1`, the TGI in test [2], in test [3], in test [4], in test [5], in test [6] and in test [7] was more than 100 µM in each case. For the same compound, the TGI in [8], in test [9] and in [10] was more than 100 µM throughout.

Turning to `O=C(O)CSC(NC(=O)C(C(F)(F)F)C(F)(F)F)(C(F)(F)F)C(F)(F)F`, the TGI in [2], in test [3], in [4], in test [5], in [6] and in [7] was more than 100 µM each time. The TGI in test [8], in [9] and in test [10] was more than 100 µM in each case.

In the case of `C=C(C)[C@@]1(O[Si](C)(C)C)CCCC[C@@H]1CC(Sc1ccccc1)Sc1ccccc1`, the TGI was 27.5 µM in test [1]; 26.5 µM in test [2]; 25.7 µM in test [3]; 30.7 µM in [4]; 29.7 µM in [6]; 40.8 µM in test [7]. For the same compound, the TGI was 32 µM in [8], 31.3 µM in [9] and 25.7 µM in [10].

Take `Cc1c(C#N)c(N)n(C2OCC(O)C(O)C2O)c(=S)c1C#N` (configuration not stated): the TGI in [1], in test [2], in test [3], in test [6], in test [7] and in [8] was more than 100 µM each time. For the same compound, the total growth inhibition concentration (TGI) in [9] and in test [10] was more than 100 µM each time.

On to `CCCCC#CS(=O)(=O)C(F)(F)F`, for which the TGI in test [1], in [2], in test [3], in [4], in test [5] and in [6] was more than 100 µM each time. Further, the TGI in test [7] was 62.9 µM; in [8] it was more than 100 µM; in test [10], 98.3 µM.

For `CC1=CC(=O)CC2(C)CCC(C(C)CC(=O)CC(C)C)CC12` (configuration not stated), the TGI was 30 µM in test [2]; 40.6 µM in [3]; more than 100 µM in [4]; 30.4 µM in [5]; 64.1 µM in test [6]; 43.2 µM in [7]. The TGI was more than 100 µM in test [8], 32.1 µM in test [9] and more than 100 µM in test [10].

`C[C@]12CC[C@H](O)C=C1CC[C@@H]1[C@@H]2CC[C@]2(C)C(c3ccc(=O)oc3)CC[C@]12O` (some centres not stated): the TGI is 0.0269 µM in [1]; 0.0152 µM in [2]; less than 0.0125 µM in test [3]; 0.102 µM in test [4]; 0.0674 µM in test [5]; 0.0777 µM in test [6]. Besides, the values for the TGI in test [7], in test [8] and in [10] were less than 0.0125 µM, 0.0926 µM and 0.0736 µM, respectively.

In the case of `O=c1n(Cc2ccccc2)c(=O)n2c(=O)n(Cc3ccccc3)c(=O)n12`, the TGI in test [2], in [4], in [5], in test [6], in test [7] and in [8] was more than 100 µM each time. For the same compound, in [10], the total growth inhibition concentration (TGI) was more than 100 µM.

With `O=C(c1ccccc1)N1C(=S)N=C(Nc2ccccc2)C1=Nc1ccccc1`, the TGI in test [1], in test [2], in test [3], in test [4], in [5] and in [6] was more than 100 µM each time. Besides, the TGI in [7], in test [8] and in test [10] was more than 100 µM each time.

For `C[C@]1(S(=O)(=O)c2ccccc2)C[C@H]2N(Cc3ccccc3)[C@@H]1CCC21OCCO1`, the concentration for total growth inhibition (TGI) in test [1] is more than 100 µM; in test [3], more than 100 µM; in test [4], more than 100 µM; in [5], more than 100 µM; in [6], 69.3 µM; in test [7] it was 32.6 µM. In addition, the TGI in test [8], in test [9] and in test [10] was more than 100 µM in each case.
